Results on 41 molecules are retold here after US20150141411A1, “SUBSTITUTED 3,4-DIHYDRO-2H-PYRIDO[1,2-A]PYRAZINE-1,6-DIONE DERIVATIVES USEFUL FOR THE TREATMENT OF (INTER ALIA) ALZHEIMER'S DISEASE” (Janssen Pharmaceuticals, Inc., priority 2012, published 2015).

Structures can show the parent of a compound that is named as a salt. Some results are limits rather than exact numbers.

For data set [1], the target named is T1, γ-secretase (Homo sapiens, UniProt P49768).
T1 construct: endogenous in cells; host or cells: SKNBE2 human neuroblastoma cells (carrying hAPP 695 wild type as substrate)
Nature of the data set: Screening for γ-secretase-modulating activity: Aβ42 in supernatant of SKNBE2 cells carrying hAPP 695 wild type (Alphalisa). The format is cell-based. Conditions: SKNBE2 human neuroblastoma cells carrying hAPP 695 wild type, overnight incubation, Aβ42 in cell supernatant. The protocol:
(§1) Screening was carried out using SKNBE2 human neuroblastoma cells carrying the hAPP 695—wild type, grown in Dulbecco's Modified Eagle's Medium/Nutrient mixture F-12 (DMEM/NUT-mix F-12) (HAM) provided by Invitrogen (cat no. 10371-029) containing 5% Serum/Fe supplemented with 1% non-essential amino acids, 1-glutamine 2 mM, Hepes 15 mM, penicillin 50 U/ml (units/ml) en streptomycin 50 μg/ml. Cells were grown to near confluency.
(§2) The screening was performed using a modification of the assay as described in Citron et al (1997) Nature Medicine 3: 67. Briefly, cells were plated in a 384-well plate at 10^4 cells/well in Ultraculture (Lonza, BE12-725F) supplemented with 1% glutamine (Invitrogen, 25030-024), 1% non-essential amino acid (NEAA), penicillin 50 U/ml en streptomycin 50 μg/ml in the presence of test compound at different test concentrations. The cell/compound mixture was incubated overnight at 37° C., 5% CO2. The next day the media were assayed by two sandwich immuno-assays, for Aβ42 and Aβ total.
(§3) Aβtotal and Aβ42 concentrations were quantified in the cell supernatant using the Aphalisa technology (Perkin Elmer). Alphalisa is a sandwich assay using biotinylated antibody attached to streptavidin coated donorbeads and antibody conjugated to acceptor beads. In the presence of antigen, the beads come into close proximity. The excitation of the donor beads provokes the release of singlet oxygen molecules that trigger a cascade of energy transfer in the acceptor beads, resulting in light emission. To quantify the amount of Aβ42 in the cell supernatant, monoclonal antibody specific to the C-terminus of Aβ42 (JRF/cAβ42/26) was coupled to the receptor beads and biotinylated antibody specific to the N-terminus of Aβ (JRF/AβN/25) was used to react with the donor beads. To quantify the amount of Aβtotal in the cell supernatant, monoclonal antibody specific to the N-terminus of Aβ (JRF/AβN/25) was coupled to the receptor beads and biotinylated antibody specific to the mid region of Aβ (biotinylated 4G8) was used to react with the donor beads.
(§4) To obtain the values reported in Table 3, the data are calculated as percentage of the maximum amount of amyloid Beta 42 measured in the absence of the test compound. The sigmoidal dose response curves were analyzed using non-linear regression analysis with percentage of the control plotted against the log concentration of the compound. A 4-parameter equation was used to determine the IC50.
A general note: Bead proximity is the source of the signal in Alpha formats.

Data set [2] concerns the target T1, γ-secretase. The data set can be described thus: Screening for γ-secretase-modulating activity: Aβtotal in supernatant of SKNBE2 cells carrying hAPP 695 wild type (Alphalisa). The format is cell-based. Conditions: SKNBE2 human neuroblastoma cells carrying hAPP 695 wild type, overnight incubation, Aβtotal in cell supernatant. As to the method:
as §1, §2, §3, §4

As for `CCC(c1cc(OC)cc(C(F)(F)F)c1)N1C(=O)c2ccc(-n3cnc(C)c3)c(=O)n2C[C@H]1C` (single isomer, unassigned) (as salt: HCl) [compound 141], the melting point turned out to be 146.2 °C.

`COc1cc(C(C)N2C(=O)c3ccc(-n4cnc(C)c4)c(=O)n3C[C@H]2C)cc(C(F)(F)F)c1` (single isomer, unassigned) (as salt: HCl) [compound 149] gave a melting point of 122 °C.

`Cc1cn(-c2ccc3n(c2=O)C[C@@H](C)N(Cc2cc(OC(C)C)c(Cl)cc2F)C3=O)cn1` (as salt: HCl) [compound 163] had a melting point of 103.1 °C.

Regarding `Cc1cn(-c2ccc3n(c2=O)C[C@@H](C)N(Cc2cc(C(F)(F)F)ccc2C)C3=O)cn1` (as salt: HCl) [compound 72], the melting point turned out to be 208.3 °C.

`Cc1cn(-c2ccc3n(c2=O)C[C@@H](C)N(CCc2cccc(Cl)c2Cl)C3=O)cn1` (as salt: HCl) [compound 231] came in with a melting point of 218 °C.

`Cc1cn(-c2ccc3n(c2=O)C[C@@H](C)N(Cc2cc(N4CCCCC4)cc(C(F)(F)F)c2)C3=O)cn1` (as salt: HCl) [compound 86] gave a melting point of 185.3 °C.

In turn, `Cc1cn(-c2ccc3n(c2=O)C[C@@H](C)N(Cc2cc(Br)cc(C(F)(F)F)c2)C3=O)cn1` (as salt: HCl) [compound 145] registered a melting point of 204.5 °C.

Molecule `Cc1cn(-c2ccc3n(c2=O)C[C@@H](C)N(Cc2cccc(Cl)c2)C3=O)cn1` (as salt: HCl) [compound 24] returned a melting point of 184.6 °C.

`Cc1cn(-c2ccc3n(c2=O)C[C@@H](C)N(Cc2cc(F)cc(OC(F)(F)F)c2)C3=O)cn1` (as salt: HCl) [compound 139] gave a melting point of 195.9 °C.

Turning to `Cc1cn(-c2ccc3n(c2=O)C[C@@H](C)N(Cc2cn(C)c4cc(F)c(C(F)(F)F)cc24)C3=O)cn1` [compound 238], the IC50 is 9 nM in data set [1] and 4000 nM in data set [2].

As to `Cc1cn(-c2ccc3n(c2=O)CC(C)N(C(C)c2cn(C)c4ccc(C(F)(F)F)cc24)C3=O)cn1` (single isomer, unassigned) [compound 215], the IC50 stood at 10 nM in data set [1] and 1440 nM in data set [2].

Regarding `Cc1cn(-c2ccc3n(c2=O)CC(C)N(C(C)c2cn(C)c4ccc(C(F)(F)F)cc24)C3=O)cn1` (single isomer, unassigned) [compound 214], the IC50 was determined as 240 nM in data set [1] and 6460 nM in data set [2].

As for `Cc1cn(-c2ccc3n(c2=O)CC(C)N(Cc2cn(C)c4cc(Br)ccc24)C3=O)cn1` (stereo not shown) [compound 177], the IC50 was 40 nM in data set [1] and greater than 10000 nM in data set [2].

On to `Cc1cn(-c2ccc3n(c2=O)C[C@@H](C)N(Cc2cccc(-n4nc(C)cc4C)c2)C3=O)cn1` [compound 83], for which the IC50 in data set [1] is 1350 nM; in data set [2], greater than 10000 nM.

In the case of `Cc1cncn1-c1ccc2n(c1=O)CCCN(Cc1ccc(Cl)c(Cl)c1)C2=O` [compound 122], the IC50 in data set [1] and in data set [2] was greater than 10000 nM throughout.

Consider `Cc1cn(-c2ccc3n(c2=O)CC(C)N(C(C)c2c[nH]c4c(F)cc(Cl)cc24)C3=O)cn1` (single isomer, unassigned) [compound 218], for which the IC50 in data set [1] is 140 nM; in data set [2] it was 3800 nM.

For `Cc1cn(-c2ccc3n(c2=O)C[C@@H](C)N(Cc2cc(C(F)(F)F)ccc2Cl)C3=O)cn1` [compound 71], the concentration for half-maximal inhibition (IC50) is 280 nM in data set [1] and greater than 10000 nM in data set [2].

`Cc1cn(-c2ccc3n(c2=O)CCN(Cc2ccccc2)C3=O)cn1` [compound 19]: the half-inhibitory concentration (IC50) in data set [1] was 6760 nM; in data set [2], greater than 10000 nM.

With `O=C1c2ccc(-n3ccnc3)c(=O)n2CCN1Cc1cccc(-c2ccccc2)c1` [compound 109], the IC50 in data set [1] is 2090 nM; in data set [2], greater than 10000 nM.

Take `Cc1cn(-c2c(C)cc3n(c2=O)C[C@@H](C)N(Cc2cc(C(F)(F)F)cc(C(F)(F)F)c2)C3=O)cn1` [compound 161]: the half-inhibitory concentration (IC50) in data set [1] is 790 nM; in data set [2], greater than 10000 nM.

For `CCn1cc(C(C)N2C(=O)c3ccc(-n4cnc(C)c4)c(=O)n3CC2C)c2cc(Cl)ccc21` (single isomer, unassigned) [compound 243], the IC50 in data set [1] stood at 10 nM; in data set [2] it was 2000 nM.

For `Cc1cn(-c2cc(Cl)c3n(c2=O)C[C@@H](C)N(Cc2cc(C(F)(F)F)cc(C(F)(F)F)c2)C3=O)cn1` [compound 159], the concentration for half-maximal inhibition (IC50) is 280 nM in data set [1] and greater than 10000 nM in data set [2].

For the molecule `Cc1cn(-c2ccc3n(c2=O)C[C@@H](C)N(Cc2cn(C)c4c(C(F)(F)F)cc(F)cc24)C3=O)cn1` [compound 261], the values for the 50% inhibitory concentration (IC50) in data set [1] and in data set [2] were 60 nM and greater than 10000 nM, respectively.

As to `Cc1cn(-c2ccc3n(c2=O)CCN(Cc2cccc(Cl)c2F)C3=O)cn1` [compound 39], the IC50 in data set [1] is 950 nM; in data set [2], greater than 10000 nM.

For the molecule `Cc1cn(-c2ccc3n(c2=O)C[C@@H](C)N(Cc2cc(F)cc(OC(F)(F)F)c2)C3=O)cn1` [compound 139], the values for the IC50 in data set [1] and in data set [2] were 950 nM and greater than 10000 nM, respectively.

For `Cc1cn(-c2ccc3n(c2=O)C[C@@H](C)N(CCc2ccccc2)C3=O)cn1` [compound 176], the IC50 was 1550 nM in data set [1] and greater than 10000 nM in data set [2].

In the case of `Cc1cn(-c2ccc3n(c2=O)CC(C)N(C(C)c2cn(C(C)C)c4cc(F)c(Cl)cc24)C3=O)cn1` (single isomer, unassigned) [compound 193], the IC50 in data set [1] is 200 nM; in data set [2] it was greater than 10000 nM.

`Cc1cn(-c2ccc3n(c2=O)CCN(Cc2cccc(-c4ccccc4)c2)C3=O)c(C)n1` [compound 87]: the half-maximal inhibitory concentration (IC50) is 7760 nM in data set [1] and greater than 10000 nM in data set [2].

In the case of `CCn1cc(C(C)N2C(=O)c3ccc(-n4cnc(C)c4)c(=O)n3CC2C)c2cc(C(F)(F)F)ccc21` (single isomer, unassigned) [compound 216], the IC50 in data set [1] was found to be 120 nM; in data set [2], 6460 nM.

On to `Cc1cc(CN2CCn3c(ccc(-n4cnc(C)c4)c3=O)C2=O)cc(C(F)(F)F)c1` [compound 60], for which the 50% inhibitory concentration (IC50) in data set [1] is 660 nM; in data set [2] it was greater than 10000 nM.

As for `CCn1cc(CN2C(=O)c3ccc(-n4cnc(C)c4)c(=O)n3C[C@H]2C)c2cc(C3CC3)ccc21` [compound 247], the IC50 in data set [1] was 10 nM; in data set [2], 6000 nM.

On to `Cc1cn(-c2ccc3n(c2=O)CC(C)N(C2CCc4ccc(C(F)(F)F)cc42)C3=O)cn1` (stereo not shown) [compound 205], for which the values for the IC50 in data set [1] and in data set [2] were 240 nM and greater than 10000 nM, respectively.

Turning to `CCn1cc(C(C)N2C(=O)c3ccc(-n4cnc(C)c4)c(=O)n3C[C@H]2C)c2ccc(C(F)(F)F)cc21` (single isomer, unassigned) [compound 244], the figures for the IC50 in data set [1] and in data set [2] were 370 nM and greater than 10000 nM, respectively.

With `Cc1cn(-c2ccc3n(c2=O)CC(C)N(Cc2c[nH]c4cc(Cl)ccc24)C3=O)cn1` (stereo not shown) [compound 179], the values for the half-maximal inhibitory concentration (IC50) in data set [1] and in data set [2] were 70 nM and greater than 10000 nM, respectively.

With `Cc1cn(-c2ccc3n(c2=O)C[C@@H](C)N(Cc2cn(C)c4c(F)cc(C(F)(F)F)cc24)C3=O)cn1` [compound 241], the IC50 in data set [1] is 6 nM; in data set [2], 4000 nM.

Consider `COc1cccc(CN2CCn3c(ccc(-n4cnc(C)c4)c3=O)C2=O)c1` [compound 66], for which the results for the IC50 in data set [1] and in data set [2] were 3890 nM and greater than 10000 nM, respectively.

For the molecule `COCC(c1cc(C(F)(F)F)cc(C(F)(F)F)c1)N1CCn2c(ccc(-n3cnc(C)c3)c2=O)C1=O` (stereo not shown) [compound 54], the figures for the half-inhibitory concentration (IC50) in data set [1] and in data set [2] were 1260 nM and greater than 10000 nM, respectively.

Consider `Cc1cn(-c2ccc3n(c2=O)C[C@@H](C)N(C(C)c2cn(C4CC4)c4cc(F)c(Cl)cc24)C3=O)cn1` (single isomer, unassigned) [compound 248], for which the IC50 in data set [1] worked out at 8 nM; in data set [2], 1000 nM.

Consider `CCn1cc(CN2C(=O)c3ccc(-n4cnc(C)c4)c(=O)n3CC2C)c2ccc(C(F)(F)F)cc21` (stereo not shown) [compound 225], for which the IC50 in data set [1] was 20 nM; in data set [2], greater than 10000 nM.

In the case of `Cc1cn(-c2ccc3n(c2=O)C[C@@H](C)N(Cc2ccc(C)c(-n4cccn4)c2)C3=O)cn1` [compound 114], the figures for the IC50 in data set [1] and in data set [2] were 1910 nM and greater than 10000 nM, respectively.

In the case of `CCn1cc(CN2C(=O)c3ccc(-n4cnc(C)c4)c(=O)n3C[C@H]2C)c2cc(C(F)(F)F)ccc21` [compound 227], the IC50 in data set [1] turned out to be 10 nM; in data set [2], 2190 nM.

For orientation: melting point means the temperature, or range, at which the solid turns liquid. What is called IC50 is the concentration that gives 50% inhibition.
